Laboratory results reported in PMC4230938, “A High-Yield Co-Expression System for the Purification of an Intact Drs2p-Cdc50p Lipid Flippase Complex, Critically Dependent on and Stabilized by Phosphatidylinositol-4-Phosphate” (PLoS ONE, 2014).
Values belong to the molecule of their own block, whether it stands above or below them.

Tests used:
Drs2p-Cdc50p complex [1] = biological target: T1, Drs2p-Cdc50p complex (Saccharomyces cerevisiae, UniProt P39524); assay: ATPase activity of complex purified without PS; format: biochemical; conditions: lipid stimulation at 0.05 mg/mL; 0.025 mg/mL PI4P, 1 mM Mg-ATP, 1 mg/mL DDM, pH 7, 30 °C
T1 construct: gene DRS2; full-length, co-expressed in yeast W303.1b/GAL4; N-terminal Bad tag (Drs2p) and His10 tag (Cdc50p) cut by TEV, Gly plus four-Gly linker left; 154,050 Da Drs2p, 45,136 Da unglycosylated Cdc50p; glycosylated; 1:1 complex in DDM; with Cell division control protein 50
T1 sequence (P39524 1-1355): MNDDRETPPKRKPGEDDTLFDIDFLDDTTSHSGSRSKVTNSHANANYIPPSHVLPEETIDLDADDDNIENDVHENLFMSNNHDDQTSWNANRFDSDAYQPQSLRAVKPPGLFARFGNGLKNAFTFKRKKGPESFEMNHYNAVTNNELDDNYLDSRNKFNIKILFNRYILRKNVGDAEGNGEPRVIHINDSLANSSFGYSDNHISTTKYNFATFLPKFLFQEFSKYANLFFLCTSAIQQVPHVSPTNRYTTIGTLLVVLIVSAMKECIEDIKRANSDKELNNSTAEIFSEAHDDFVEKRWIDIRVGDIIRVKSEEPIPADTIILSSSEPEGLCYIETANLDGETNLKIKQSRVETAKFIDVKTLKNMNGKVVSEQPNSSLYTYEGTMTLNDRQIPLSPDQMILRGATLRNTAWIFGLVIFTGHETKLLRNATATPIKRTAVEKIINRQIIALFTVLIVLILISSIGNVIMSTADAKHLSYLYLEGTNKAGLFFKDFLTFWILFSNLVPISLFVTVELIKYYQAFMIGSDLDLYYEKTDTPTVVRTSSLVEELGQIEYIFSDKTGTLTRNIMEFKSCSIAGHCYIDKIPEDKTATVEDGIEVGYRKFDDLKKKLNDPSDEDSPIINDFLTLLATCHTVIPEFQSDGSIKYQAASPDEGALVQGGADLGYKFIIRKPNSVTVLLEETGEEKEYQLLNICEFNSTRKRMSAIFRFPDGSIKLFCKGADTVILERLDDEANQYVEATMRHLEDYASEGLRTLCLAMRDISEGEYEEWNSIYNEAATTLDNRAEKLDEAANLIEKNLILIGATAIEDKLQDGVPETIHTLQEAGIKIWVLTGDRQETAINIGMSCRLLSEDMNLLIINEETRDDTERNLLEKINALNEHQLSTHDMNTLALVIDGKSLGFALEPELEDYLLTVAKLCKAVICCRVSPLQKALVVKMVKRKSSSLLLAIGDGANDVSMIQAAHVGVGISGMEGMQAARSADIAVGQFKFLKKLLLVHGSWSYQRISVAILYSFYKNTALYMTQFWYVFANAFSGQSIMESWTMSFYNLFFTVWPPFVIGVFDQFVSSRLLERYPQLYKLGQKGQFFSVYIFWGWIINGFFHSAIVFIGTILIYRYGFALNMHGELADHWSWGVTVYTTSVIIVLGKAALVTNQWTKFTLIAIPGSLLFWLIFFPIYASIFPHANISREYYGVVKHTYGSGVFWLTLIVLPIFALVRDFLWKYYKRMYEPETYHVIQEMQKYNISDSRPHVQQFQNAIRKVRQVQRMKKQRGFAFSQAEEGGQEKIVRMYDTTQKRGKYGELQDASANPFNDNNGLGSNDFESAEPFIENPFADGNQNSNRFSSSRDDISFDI
T1 sequence (P25656 1-391 partner): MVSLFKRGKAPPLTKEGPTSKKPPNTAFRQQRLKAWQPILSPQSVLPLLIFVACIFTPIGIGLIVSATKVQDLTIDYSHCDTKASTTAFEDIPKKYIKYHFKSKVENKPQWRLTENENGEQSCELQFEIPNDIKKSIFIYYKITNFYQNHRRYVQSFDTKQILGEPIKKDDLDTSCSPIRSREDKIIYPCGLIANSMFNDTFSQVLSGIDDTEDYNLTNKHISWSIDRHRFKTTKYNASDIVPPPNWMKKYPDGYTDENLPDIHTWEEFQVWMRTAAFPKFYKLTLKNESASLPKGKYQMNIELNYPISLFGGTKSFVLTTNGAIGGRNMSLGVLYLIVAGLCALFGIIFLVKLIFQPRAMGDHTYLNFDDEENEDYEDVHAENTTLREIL

Drs2p-Cdc50p complex [2] = biological target: T1, Drs2p-Cdc50p complex; assay: ATPase activity, colorimetric Pi release; format: biochemical; conditions: transported lipid stimulating ATPase; 0.025 mg/mL PI4P, 1 mM Mg-ATP, 1 mg/mL DDM, pH 7, 30 °C; residual PS from purification present; read-out: [PS]1/2
Drs2p-Cdc50p complex [3] = biological target: T1, Drs2p-Cdc50p complex; assay: ATPase activity, colorimetric Pi release; format: biochemical; conditions: inhibitor; 1 h pre-incubation on ice; 1 mM ATP, 0.025 mg/mL PI4P, 0.05 mg/mL POPS, 1 mg/mL DDM, pH 7, 30 °C; printed only as a range
[4] = biological target: T2, Drs2p, tag-free after TEV cleavage (S. cerevisiae, UniProt P39524 1-1355); assay: in-gel fluorescence of haloalkane-modified Trp residues after SDS-PAGE; band intensities of Drs2p and Cdc50p in the streptavidin-purified complex, 4-20% gradient gel; conditions: both partners purified
T2 construct: Drs2p, yeast P4-ATPase; theoretical mass of the recombinant protein 154,050 Da; also called purified Drs2p; source: S. cerevisiae W303.1b/GAL4, co-expressed with Cdc50p, purified (streptavidin-Sepharose, TEV elution, Ni2+-TED; SEC); not shown: Bad (Biotin Acceptor Domain), N-terminal, cleaved
T2 sequence (looked up): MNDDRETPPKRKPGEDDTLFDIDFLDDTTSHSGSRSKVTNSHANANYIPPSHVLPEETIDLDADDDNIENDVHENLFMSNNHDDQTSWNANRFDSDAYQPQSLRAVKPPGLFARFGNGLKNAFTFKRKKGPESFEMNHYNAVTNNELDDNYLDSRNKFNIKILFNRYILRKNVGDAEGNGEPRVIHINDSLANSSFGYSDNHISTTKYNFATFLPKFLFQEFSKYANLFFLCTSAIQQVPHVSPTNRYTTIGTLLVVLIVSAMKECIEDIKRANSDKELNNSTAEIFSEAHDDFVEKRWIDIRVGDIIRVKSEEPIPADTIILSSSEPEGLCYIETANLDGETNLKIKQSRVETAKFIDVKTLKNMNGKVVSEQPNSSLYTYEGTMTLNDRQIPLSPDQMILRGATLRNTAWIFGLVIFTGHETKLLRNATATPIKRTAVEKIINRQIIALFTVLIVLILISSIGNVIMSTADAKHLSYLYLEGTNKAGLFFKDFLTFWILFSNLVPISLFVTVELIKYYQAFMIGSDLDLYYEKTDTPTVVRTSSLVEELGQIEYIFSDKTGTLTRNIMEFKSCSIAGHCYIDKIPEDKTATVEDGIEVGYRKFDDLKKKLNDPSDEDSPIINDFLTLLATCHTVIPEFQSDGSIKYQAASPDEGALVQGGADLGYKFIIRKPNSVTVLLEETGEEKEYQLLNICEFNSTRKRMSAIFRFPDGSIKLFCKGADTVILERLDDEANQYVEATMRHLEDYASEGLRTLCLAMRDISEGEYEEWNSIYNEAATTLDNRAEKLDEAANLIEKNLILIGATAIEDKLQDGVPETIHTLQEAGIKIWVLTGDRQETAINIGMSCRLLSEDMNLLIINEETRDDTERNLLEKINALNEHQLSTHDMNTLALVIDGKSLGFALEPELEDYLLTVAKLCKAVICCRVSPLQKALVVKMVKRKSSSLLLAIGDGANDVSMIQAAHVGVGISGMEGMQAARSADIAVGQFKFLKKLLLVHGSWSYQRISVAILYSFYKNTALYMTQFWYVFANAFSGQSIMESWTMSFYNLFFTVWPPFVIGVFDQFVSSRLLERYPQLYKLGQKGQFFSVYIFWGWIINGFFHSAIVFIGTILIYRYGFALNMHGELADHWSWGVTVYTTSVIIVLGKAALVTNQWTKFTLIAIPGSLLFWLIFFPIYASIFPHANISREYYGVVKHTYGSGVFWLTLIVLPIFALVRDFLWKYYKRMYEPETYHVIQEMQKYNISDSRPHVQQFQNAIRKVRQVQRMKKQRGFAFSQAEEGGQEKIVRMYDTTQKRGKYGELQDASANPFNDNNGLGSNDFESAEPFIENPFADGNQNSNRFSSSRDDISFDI

[5] = substrate: Nc1ncnc2c1ncn2[C@@H]1O[C@H](COP(=O)(O)OP(=O)(O)OP(=O)(O)O)[C@@H](O)[C@H]1O; assay: ATPase activity, colorimetric Pi release; format: biochemical, Saccharomyces cerevisiae; conditions: 0.025 mg/mL PI4P, 0.05 mg/mL POPS, 1 mg/mL DDM, ATP-regenerating system, pH 7, 30 °C

Molecule: CCCCCCCC/C=C\CCCCCCCC(=O)O[C@H](COC(=O)CCCCCCCCCCCCCCC)COP(=O)(O)OCCN [POPE, 1-palmitoyl-2-oleoyl-sn-glycero-3-phosphoethanolamine]
ATPase activity of complex purified without PS (Drs2p-Cdc50p complex [1]): POPC only had a slightly stimulating effect, POPE had a larger one

Molecule: CCCCCCCC/C=C\CCCCCCCC(=O)O[C@H](COC(=O)CCCCCCCCCCCCCCC)COP(=O)(O)OC[C@H](N)C(=O)O [POPS, 1-palmitoyl-2-oleoyl-sn-glycero-3-phospho-L-serine]
Km (Drs2p-Cdc50p complex [2]): > 26.2 µM

Molecule: [O]=[V]([OH])([OH])[OH] [orthovanadate]
KI (Drs2p-Cdc50p complex [3]): vanadate had a rather poor KI, in the millimolar range (Figure 7E)

Molecule: CCCCCCCCCCCCCC(=O)OC[C@H](COP(=O)(O)OC[C@H](N)C(=O)O)OC(=O)CCCCCCCCCCCCC [DMPS, 1,2-dimyristoyl-sn-glycero-3-phospho-L-serine]
ATPase activity of complex purified without PS (Drs2p-Cdc50p complex [1]): PS had the largest stimulating effect, irrespective of its fatty acyl chain (POPS or DMPS)

stoichiometry N [4]: 1 Drs2p:Cdc50p (mol:mol)
B1: Cdc50p, tag-free after TEV cleavage (natural protein, S. cerevisiae, UniProt P25656 1-391, looked up)
chain: MVSLFKRGKAPPLTKEGPTSKKPPNTAFRQQRLKAWQPILSPQSVLPLLIFVACIFTPIGIGLIVSATKVQDLTIDYSHCDTKASTTAFEDIPKKYIKYHFKSKVENKPQWRLTENENGEQSCELQFEIPNDIKKSIFIYYKITNFYQNHRRYVQSFDTKQILGEPIKKDDLDTSCSPIRSREDKIIYPCGLIANSMFNDTFSQVLSGIDDTEDYNLTNKHISWSIDRHRFKTTKYNASDIVPPPNWMKKYPDGYTDENLPDIHTWEEFQVWMRTAAFPKFYKLTLKNESASLPKGKYQMNIELNYPISLFGGTKSFVLTTNGAIGGRNMSLGVLYLIVAGLCALFGIIFLVKLIFQPRAMGDHTYLNFDDEENEDYEDVHAENTTLREIL
modifications: glycosylated
notes: Cdc50p, accessory subunit of Drs2p; recombinant non-glycosylated mass 45,136 Da including the linker glycines; also called glycosylated Cdc50p; source: S. cerevisiae W303.1b/GAL4, co-expressed with Drs2p, purified with it (streptavidin-Sepharose, TEV elution, Ni2+-TED; SEC); not shown: His10, N-terminal, cleaved

B2: Drs2p-Cdc50p complex (Saccharomyces cerevisiae S288C) (protein)
chain: MNDDRETPPKRKPGEDDTLFDIDFLDDTTSHSGSRSKVTNSHANANYIPPSHVLPEETIDLDADDDNIENDVHENLFMSNNHDDQTSWNANRFDSDAYQPQSLRAVKPPGLFARFGNGLKNAFTFKRKKGPESFEMNHYNAVTNNELDDNYLDSRNKFNIKILFNRYILRKNVGDAEGNGEPRVIHINDSLANSSFGYSDNHISTTKYNFATFLPKFLFQEFSKYANLFFLCTSAIQQVPHVSPTNRYTTIGTLLVVLIVSAMKECIEDIKRANSDKELNNSTAEIFSEAHDDFVEKRWIDIRVGDIIRVKSEEPIPADTIILSSSEPEGLCYIETANLDGETNLKIKQSRVETAKFIDVKTLKNMNGKVVSEQPNSSLYTYEGTMTLNDRQIPLSPDQMILRGATLRNTAWIFGLVIFTGHETKLLRNATATPIKRTAVEKIINRQIIALFTVLIVLILISSIGNVIMSTADAKHLSYLYLEGTNKAGLFFKDFLTFWILFSNLVPISLFVTVELIKYYQAFMIGSDLDLYYEKTDTPTVVRTSSLVEELGQIEYIFSDKTGTLTRNIMEFKSCSIAGHCYIDKIPEDKTATVEDGIEVGYRKFDDLKKKLNDPSDEDSPIINDFLTLLATCHTVIPEFQSDGSIKYQAASPDEGALVQGGADLGYKFIIRKPNSVTVLLEETGEEKEYQLLNICEFNSTRKRMSAIFRFPDGSIKLFCKGADTVILERLDDEANQYVEATMRHLEDYASEGLRTLCLAMRDISEGEYEEWNSIYNEAATTLDNRAEKLDEAANLIEKNLILIGATAIEDKLQDGVPETIHTLQEAGIKIWVLTGDRQETAINIGMSCRLLSEDMNLLIINEETRDDTERNLLEKINALNEHQLSTHDMNTLALVIDGKSLGFALEPELEDYLLTVAKLCKAVICCRVSPLQKALVVKMVKRKSSSLLLAIGDGANDVSMIQAAHVGVGISGMEGMQAARSADIAVGQFKFLKKLLLVHGSWSYQRISVAILYSFYKNTALYMTQFWYVFANAFSGQSIMESWTMSFYNLFFTVWPPFVIGVFDQFVSSRLLERYPQLYKLGQKGQFFSVYIFWGWIINGFFHSAIVFIGTILIYRYGFALNMHGELADHWSWGVTVYTTSVIIVLGKAALVTNQWTKFTLIAIPGSLLFWLIFFPIYASIFPHANISREYYGVVKHTYGSGVFWLTLIVLPIFALVRDFLWKYYKRMYEPETYHVIQEMQKYNISDSRPHVQQFQNAIRKVRQVQRMKKQRGFAFSQAEEGGQEKIVRMYDTTQKRGKYGELQDASANPFNDNNGLGSNDFESAEPFIENPFADGNQNSNRFSSSRDDISFDI
notes: full-length, co-expressed in yeast W303.1b/GAL4; N-terminal Bad tag (Drs2p) and His10 tag (Cdc50p) cut by TEV, Gly plus four-Gly linker left; 154,050 Da Drs2p, 45,136 Da unglycosylated Cdc50p; glycosylated; 1:1 complex in DDM; with Cell division control protein 50
K0.5 [5]: 10 µM
